# Data published in patent US8546608B2, “Proteasome inhibitors and methods of using the same” (Cephalon, Inc., priority 2003, dated 2013).
# Structures can show the parent of a compound that is named as a salt. Where two headings read alike, the source gives them in different places.
# Experiments:
# [1] = target: T1, 20S Human Erythrocyte Proteasome (HEP) (Homo sapiens, UniProt P20618+P28074); experiment: Chymotrypsin-like activity of 20S Human Erythrocyte Proteasome (HEP), IC50 determination; type: biochemical; details: assay of Example C, inhibition of HEP
# T1 construct: 20S Human Erythrocyte Proteasome (HEP), purchased from Immatics Biotechnologies Inc; purchased Immatics Biotechnologies Inc., Tübingen, Germany; host or cells: human erythrocytes (natural source)
# Method: Assay for Chymotrypsin-like Activity of 20S Human Erythrocyte Proteasome (HEP)
# Proteasome chymotrypsin-like activity of compounds of the invention was assayed according to the following procedure.
# In 96-well microtiter plates, 20S Human Erythrocyte Proteasome (HEP), purchased from Immatics Biotechnologies Inc., Tübingen, Germany was plated at 0.2 μg/mL (about 0.6 nM catalytic sites) in 0.04% SDS 20 mM Tris buffer. A fluorimetric substrate Suc-LLVY-AMC (succinyl-Leu-Leu-Val-Tyr-7-amido-4-methylcoumarin), purchased from Sigma Inc., St. Louis, Mo., USA was added to a final concentration of 100 μM from a stock solution of 10 mM in dimethylsulfoxide. Reaction volumes were 100 μl per well. […] Proteasome activity was determined under conditions in which substrate hydrolysis increased linearly with time and the change in fluorescence signal was proportional to the concentration of free AMC.
# Determination of IC50 Values for HEP and α-Chymotrypsin Inhibitors
# (§1) Inhibition of the chymotrypsin-like activity of HEP and of bovine α-chymotrypsin was determined by incubating the enzyme with various concentrations of putative inhibitors for 15 minutes at 37° C. (or room temperature for α-chymotrypsin) prior to the addition of substrate. Each experimental condition was evaluated in triplicate, and replicate experiments were performed for the inhibitors described herein.
# [2] = target: T2, proteasome in Molt-4 cells (human leukemia) (Homo sapiens, UniProt P20618+P28074); type: cell-based
# T2 sequence (P28074 60-263): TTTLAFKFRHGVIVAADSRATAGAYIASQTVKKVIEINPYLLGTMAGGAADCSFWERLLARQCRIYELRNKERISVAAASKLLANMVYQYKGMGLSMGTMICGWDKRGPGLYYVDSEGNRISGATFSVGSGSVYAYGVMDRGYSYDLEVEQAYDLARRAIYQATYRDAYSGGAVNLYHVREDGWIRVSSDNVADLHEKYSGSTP
# T2 sequence (P20618 29-241): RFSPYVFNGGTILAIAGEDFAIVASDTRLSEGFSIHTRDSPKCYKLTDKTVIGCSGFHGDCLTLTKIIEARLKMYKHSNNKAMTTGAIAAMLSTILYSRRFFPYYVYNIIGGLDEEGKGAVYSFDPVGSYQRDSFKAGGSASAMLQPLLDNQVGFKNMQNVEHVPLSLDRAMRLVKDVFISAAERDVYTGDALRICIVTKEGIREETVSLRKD
# Method: Cellular Assay for Chymotrypsin-like activity of Proteasome in Molt-4 Cell Line
# The chymotrypsin-like activity of proteasome in Molt-4 cells (human leukemia) was assayed according to the following procedure. A brief description of the method was published previously (Harding et al., J. Immunol., 1995, 155, 1767).
# Molt-4 cells were washed and resuspended in HEPES-buffered Saline (5.4 mM KCl, 120 mM NaCl, 25 mM Glucose, 1.5 mM MgSO4, 1 mM Na pyruvate, 20 mM Hepes) and plated in 96-well microtiter white plates to a final concentration of 6×10^6 cells/mL. Then various 5× proteasome inhibitor concentrations (or diluted DMSO for controls), prepared from 250×DMSO solutions by diluting 50-fold using HEPES-buffered saline, were added to the plate to a final 1× concentration. After 15 minutes incubation at 37° C., a fluorimetric cell permeable substrate (MeOSuc-FLF-AFC) (methoxysuccinyl-Phe-Leu-Phe-7-amido-4-trifluoromethylcoumarin) purchased from Enzyme Systems Products, catalogue number AFC-88, was added to each well at a final concentration of 25 μM from a stock solution of 20 mM in DMSO. Reaction volumes were 100 μl per well.
# The concentration of free AFC was monitored every 1.5 min for 30 min ([…]) on a Polastar Optima, BMG Labtechnologies microplate reader, using an excitation wavelength of 390 nm and emission wavelength of 520 nm. Proteasome activity was determined under conditions in which substrate hydrolysis increased linearly with time and the change in fluorescent signal was proportional to the concentration of free AFC.
# Determination of EC50 Values for Proteasome Inhibitors in MOLT-4 Cell Line
# as §1, with “of” for “of the”, “proteasome in Molt-4 cells” for “HEP and of bovine α-chymotrypsin”, “cells” for “the enzyme”, “C.” for “C. (or room temperature for α-chymotrypsin)”
# [3] = assay of Example E, inhibition of MOLT4; read-out: MOLT4 (EC50)
Compound,IC50 [1],"EC50 [2, 3]","EC50 ([2]; read-out: MOLT4 (EC50); assay of Example E, inhibition of MOLT4)"
"Cc1nc(C)c(C(=O)N[C@@H](CCCNC(=N)N[N+](=O)[O-])C(=O)N[C@@H](CC(C)C)B(O)O)s1 [E.2.27, Boronic acid, [(1R)-1-[[(2S)-5-[[imino(nitroamino)methyl]amino]-2-[(2,4-dimethylthiazole-5-carbonyl)amino]-1-oxopentyl]amino]-3-methylbutyl]]",< 10 nM,> 10000 nM,–
COCCOCC(=O)N[C@@H](CCCNC(=N)N[N+](=O)[O-])C(=O)N[C@@H](CC(C)C)B1O[C@@H]2C[C@@H]3C[C@@H](C3(C)C)[C@]2(C)O1 [D.1.6],< 100 nM,200 to 2000 nM,–
"CC(C)C[C@H](NC(=O)[C@H](CCCNC(=N)N[N+](=O)[O-])NC(=O)c1ccc(C(C)(C)C)cc1)B(O)O [E.2.8, Boronic acid, [(1R)-1-[[(2S)-5-[[imino(nitroamino)methyl]amino]-2-[(4-(1,1-dimethylethyl)benzoyl)amino]-1-oxopentyl]amino]-3-methylbutyl]]",< 10 nM,2000 to 10000 nM,–
"CCCCCCCCS(=O)(=O)N[C@@H](CCCNC(=N)N[N+](=O)[O-])C(=O)N[C@@H](CC(C)C)B(O)O [E.1.15, Boronic acid, [(1R)-1-[[(2S)-5-[[imino(nitroamino)methyl]amino]-2-[(1-octanesulfonyl)amino]-1-oxopentyl]amino]-3-methylbutyl], HCl salt]",< 10 nM,–,200 to 2000 nM
CCCCc1ccc(C(=O)N[C@H](CNC(=O)c2ccc(C)cc2)C(=O)N[C@@H](CC(C)C)B(O)O)cc1 [E.5.41],< 100 nM,< 200 nM,–
"COCCOCCOCC(=O)N[C@@H](CCCNC(=N)N[N+](=O)[O-])C(=O)N[C@@H](CC(C)C)B(O)O [E.1.8, Boronic acid, [(1R)-1-[[(2S)-5-[[imino(nitroamino)methyl]amino]-2-[[2-[2-(2-methoxyethoxy)ethoxy]acetyl]amino]-1-oxopentyl]amino]-3-methylbutyl]]",< 10 nM,> 10000 nM,–
"CCCCc1ccc(C(=O)N[C@@H](CNC(=O)Nc2ccccc2)C(=O)N[C@@H](CC(C)C)B(O)O)cc1 [E.5.19, Boronic acid, [(1R)-1-[[(2S)-3-(3-phenylureido)-2-(4-butylbenzoylamino)-1-oxopropyl]amino]-3-methylbutyl]]",< 10 nM,< 200 nM,–
"CC(C)C[C@H](NC(=O)[C@H](CCCNC(=N)N[N+](=O)[O-])NC(=O)CCc1ccccc1)B(O)O [E.2.32, Boronic acid, [(1R)-1-[[(2S)-5-[[imino(nitroamino)methyl]amino]-2-[(3-phenylpropanoyl)amino]-1-oxopentyl]amino]-3-methylbutyl]]",< 10 nM,> 10000 nM,–
"CCC(C)C(=O)N[C@@H](CCCNC(=N)N[N+](=O)[O-])C(=O)N[C@@H](CC(C)C)B(O)O (mixture of isomers) [E.2.35, Boronic acid, [(1R)-1-[[(2S)-5-[[immo(nitroamino)methyl]amino]-2-[((RS)-2-methylbutanoyl)amino]-1-oxopentyl]amino]-3-methylbutyl]]",< 10 nM,> 10000 nM,–
"CC(C)C[C@H](NC(=O)[C@H](CCCNC(=N)N[N+](=O)[O-])NC(=O)CCCc1cccs1)B(O)O [D.7.19, Boronic acid, [(1R)-1-[[(2S)-5-[[imino(nitroamino)methyl]amino]-2-[[4-(thiophen-2-yl)butanoyl]amino]-1-oxopentyl]amino]-3-methylbutyl]]",< 10 nM,2000 to 10000 nM,–
"CC(C)C[C@H](NC(=O)[C@H](CCCNC(=N)N[N+](=O)[O-])NC(=O)CCCCCNS(=O)(=O)c1ccccc1)B1O[C@@H]2C[C@@H]3C[C@@H](C3(C)C)[C@]2(C)O1 [D.1.12, 6-Benzenesulfonylaminohexanamide,N-[(1S)-1-[[[(1R)-1-[(3aS,4S,6S,7aR)-hexahydro-3a,5,5-trimethyl-4,6-methano-1,3,2-benzodioxaborol-2-yl]-3-methylbutyl]amino]carbonyl]-4-[[imino(nitroamino)methyl]amino]butyl]]",< 10 nM,200 to 2000 nM,–
"CC(C)C[C@H](NC(=O)[C@H](CCCNC(=N)N[N+](=O)[O-])NC(=O)CCCNC(=O)OCC1c2ccccc2-c2ccccc21)B1O[C@@H]2C[C@@H]3C[C@@H](C3(C)C)[C@]2(C)O1 [D.3.122, [[[(9H-fluoren-9-yl)methoxy]carbonyl]amino]butanamide, N-[(1S)-1-[[[(1R)-1-[(3aS,4S,6S,7aR)-hexahydro-3a,5,5-trimethyl-4,6-methano-1,3,2-benzodioxaborol-2-yl]-3-methylbutyl]amino]carbonyl]-4-[[imino(nitroamino)methyl]amino]butyl]]",< 10 nM,< 200 nM,–
"CC(C)C[C@H](NC(=O)[C@@H](NC(=O)c1ccc(-c2cccnc2)cc1)[C@@H](C)O)B(O)O [E.4, Boronic Acid, [(1R)-1-[[(2S,3R)-3-hydroxy-2-[[4-(3-pyridyl)benzoyl]amino]-1-oxobutyl]amino]-3-methylbutyl]]",< 10 nM,< 200 nM,–
"CC(C)C[C@H](NC(=O)[C@@H](NC(=O)c1ccc2cc(Br)ccc2c1)[C@@H](C)O)B(O)O [E.1.26, Boronic acid, [(1R)-1-[[(2S,3R)-3-hydroxy-2-[(6-Bromo-2-naphthoyl)amino]-1-oxobutyl]amino]-3-methylbutyl]]",< 10 nM,< 200 nM,–
"CC(C)C[C@H](NC(=O)[C@@H](NC(=O)CCCc1ccccc1)[C@@H](C)O)B1O[C@@H]2C[C@@H]3C[C@@H](C3(C)C)[C@]2(C)O1 [D.3.176, 4-Phenylbutanamide,N-[(1S,2R)-1-[[[(1R)-1-[(3aS,4S,6S,7aR)-hexahydro-3a,5,5-trimethyl-4,6-methano-l53.2-benzodioxaborol-2-yl]-3-methylbutyl]amino]carbonyl]-2-hydroxypropyl]]",< 10 nM,< 200 nM,–
"CC(C)C[C@H](NC(=O)[C@H](CCCNC(=N)N[N+](=O)[O-])NC(=O)c1cccc(NC(=O)OC(C)(C)C)c1)B1O[C@@H]2C[C@@H]3C[C@@H](C3(C)C)[C@]2(C)O1 [D.1.5, 3-[(1,1-dimethylethoxy)carbonylamino]benzamide, N-[(1S)-1-[[[(1R)-1-[(3aS,4S,6S,7aR)-hexahydro-3a,5,5-trimethyl-4,6-methano-1,3,2-benzodioxaborol-2-yl]-3-methylbutyl]amino]carbonyl]-4-[[imino(nitroamino)methyl]amino]butyl]-]",< 10 nM,200 to 2000 nM,–
"Boronic acid, [(1R)-1-[[(2S)-5- [[imino(nitroamino)methyl]amino]-2-[(hexahydro- 2,5-methanopentalene-3a(1H)-carbonyl)amino]-1- oxopentyl]amino]-3-methylbutyl] [E.2.24]",< 10 nM,> 10000 nM,–
"CCCCc1ccc(C(=O)N[C@H](C(=O)N[C@@H](CC(C)C)B2O[C@@H]3C[C@@H]4C[C@@H](C4(C)C)[C@]3(C)O2)[C@@H](C)O)cc1 [D.3.179, 4-butylbenzamide, N-[(1S,2R)-1-[[[(1R)-1-[(3aS,4S,6S,7aR)-hexahydro-3a,5,5-trimethyl-4,6-methano-1,3,2-benzodioxaborol-2-yl]-3-methylbutyl]amino]-carbonyl]-2-hydroxypropyl]-]",< 10 nM,< 200 nM,–
